Results: article PMC6273592, “Catalytic Synthesis of a New Series of Alkyl Uronates and Evaluation of Their Physicochemical Properties” (Molecules, 2016)
Converted amounts (≈) assume the structure as drawn. “And” between values parts separate entries of the source, which are not always exact repeats. Equal values may be shown once. “Also recorded” adds a separate entry of the source. Read-outs that look alike come from different tables or passages of the source.

What was measured:
[1] = Krafft temperature (Tk) by differential scanning calorimetry; type: physicochemical; details: DSC, aqueous mixture 10% (w/w), heating scan 4 °C to 65 °C, onset of endothermic signal
Protocol: (§1) For each molecule, several samples in 1–2 mL deionized water with various concentrations (between 0.01 mM and 100 mM) were prepared by homogenizing at 500 rpm with a standard magnetic hotplate stirrer MR 3001K (Heidolph Instruments, Schwabach, Germany) for 30 min. The soluble or insoluble character was estimated on the aspect change of corresponding dispersion systems. The concentration limit to obtain an apparently clear solution was noted [C]max. […] This allows the examination of the temperature-driven solubilization behavior and verifies the presence of the Krafft point (Tk), above which the surfactant solubility in water increases abruptly. At Tk, solubility of the surfactant reaches its critical micelle concentration (CMC). In other words, Tk represents the critical temperature at which the micellization process occurs with the dissolution of hydrated surfactant crystals. Thus, Tk can be precisely determined by differential scanning calorimetry (DSC), which has already been proposed by some authors. All of the measurements were performed with a commercial µDSC7 evo calorimeter (SETARAM Instrumentation, Caluire, France). For each molecule, a sample with a concentrated aqueous mixture of 10% (w/w) molecule (C >> CMC) was prepared at 50 °C under magnetic agitation for 30 min to obtain a homogeneous and clear dispersion. These dispersions were then put into a refrigerator at 4 °C for a period over a week, permitting potential phase transitions, including the formation of equilibrated hydrated crystals. Samples of about 300 mg were introduced in the calorimeter cell and equilibrated at 4 °C for 1 h. A heating scan from 4 °C to 65 °C at a rate of 0.5 °C/min was then performed. Tk were identified as the onset of the endothermic signal detected by DSC during the dissolution of hydrated crystals. Tk were calculated as an average of at least two measurements.

[2] = Aqueous solubility: concentration limit of apparently clear solution ([C]max) by visual observation; type: physicochemical; details: for solubility at 30 min: deionized water
Protocol: as §1

[3] = Equilibrium surface tension at the air-aqueous solution interface (Wilhelmy plate); type: physicochemical; details: water; for Amin (minimal area per molecule at air-aqueous solution interface): calculated from Gibbs equation
Protocol: The surface activity of the synthesized molecules was studied mainly in terms of their adsorption behavior on the air-aqueous solution interface. The equilibrium surface tensions γ were measured by means of a Wilhelmy plate using a K100 Processor Tensiometer (KRUSS, Hamburg, Germany). The equilibrium surface tension γ was plotted as a function of the log concentration for all molecules, from which we can derive various parameters, like critical micellar concentration (CMC) extrapolated from the break in the surface tension curve and surface tension at the CMC (γcmc). The surface excess (Γmax) and minimal area per molecule at air-aqueous solution interface (Amin) can be calculated from Gibbs equation for non-ionic surfactants: (2) Гmax=−1/2.303RT(dγ/dlogc) and (3) Amin=10^20/NAГmax where R is the ideal gas constant (8.31 J·mol^−1K^−1)’ T is the measuring temperature (K); γ is the surface tension (N·m^−1), c is the concentration (mol·L^−1); Amin is the minimal area per molecule (Å^2); and NA is Avogadro′s number (6.02 × 10^23 mol^−1).
For each molecule, a series of solutions of different concentrations were prepared well above its Krafft Point, either at room temperature of about 25 °C or at 50 °C, under agitation in a water bath for 30 min. Measurements were carried out for each concentration, either at 25 °C for molecules with a Tk below room temperature, or at T > Tk for those with higher Tk values than 25 °C. The standard deviation for temperature is 1 °C.

[4] = cited from earlier work
[5] = room temperature of about 25 °C, visual observation

Compound	Tk (Krafft Temperature) [1]	solubility at 30 min [2, 5]	[C]max ([2]; water, 25 °C (Table 2))	CMC ([3]; 25 °C)	γcmc (surface tension at the CMC) ([3]; 25 °C)	Amin (minimal area per molecule at air-aqueous solution interface) ([3]; 25 °C)	CMC [4]	also measured
CCCCCCOC(=O)[C@H]1O[C@H](OC)[C@H](O)[C@@H](O)[C@@H]1O [3c, Hexyl (methyl α-D-glucopyranosid)uronate]	undetected	≥ 50000 µM	50 to 60 mM	55 ± 5 mM	30.8 ± 0.8 mN·m^−1	39.2 ± 2.9 Å^2/molecule	–	–
CCCCCCCCOC(=O)[C@H]1O[C@H](OC)[C@H](O)[C@@H](O)[C@@H]1O [3d, Octyl (methyl α-D-glucopyranosid)uronate]	no signal; also recorded: undetected	≥ 20000 µM	15 to 20 mM	6.0 ± 0.5 mM	29.2 ± 0.4 mN·m^−1	41.0 ± 1 Å^2/molecule	–	–
CCCCCCCCCCOC(=O)[C@H]1O[C@H](OC)[C@H](O)[C@@H](O)[C@@H]1O [3e, Decyl (methyl α-D-glucopyranosid)uronate]	undetected	500 to 750 µM (≈ 174 to 261 µg/mL)	0.5 to 0.75 mM	0.65 ± 0.05 mM	28.1 ± 0.1 mN·m^−1	42.4 ± 2 Å^2/molecule	–	–
CCCCCCCCCCCCOC(=O)[C@H]1O[C@H](OC)[C@H](O)[C@@H](O)[C@@H]1O [3f, Dodecyl (methyl α-D-glucopyranosid)uronate]	22 ± 0.2 °C	≥ 30 µM	0.03 to 0.05 mM	0.056 ± 0.004 mM	28.3 ± 0.3 mN·m^−1	45.6 ± 5 Å^2/molecule	–	–
CCCCCCCCOC(=O)[C@H]1O[C@@H](OC)[C@H](O)[C@@H](O)[C@H]1O [compound 5, Octyl (methyl β-D-galactopyranosid)uronate]	31 ± 0.9 °C	–	–	–	–	–	–	[C]max ([2]; water, 40 °C (Table 2)): >100 mM; [C]max at T > Tk ([2]; water, above Krafft temperature (31 °C)): > 100 mM; [C]max at ≈25 °C (concentration limit of apparently clear solution) ([2]; water, room temperature of about 25 °C, visual observation): insoluble; CMC ([3]; 40 °C): 6.9 ± 0.4 mM; γcmc (surface tension at the CMC) ([3]; 40 °C): 29.4 ± 0.36 mN·m^−1 and 29.4 ± 0.4 mN·m^−1; Amin (minimal area per molecule at air-aqueous solution interface) ([3]; 40 °C): 42.9 ± 3.9 Å^2/molecule
CCCCCCCCOC(=O)C1OC(OC)C(O)C(O)C1O [compound 7, Octyl (methyl α-D-mannopyranosid)uronate]	no signal; also recorded: undetected	≥ 5000 µM	5.0 to 6.2 mM	5.5 ± 0.5 mM	28.3 ± 0.3 mN·m^−1	42.8 ± 2 Å^2/molecule	–	–
polyethylene glycol tert-octylphenyl ether [Triton X-100]	–	–	–	–	–	–	0.23 to 0.24 mM	–
polyoxyethylene (23) lauryl ether [Brij 35]	–	–	–	–	–	–	0.03 to 0.09 mM	–
polyoxyethylene sorbitan monolaurate [Tween 20]	–	–	–	–	–	–	0.050 to 0.059 mM	–
